{"source": "patent US20230277483A1", "about": "“COMPOSITIONS AND METHODS TO TREAT INFLAMMATION” (University of Iowa Research Foundation, priority 2022, published 2023)", "key": {"[1]": {"tested_on": "human gingival fibroblasts (HGF)", "test": "Proinflammatory cytokines after Pg-LPS challenge (qRT-PCR, ELISA, antibody array)", "type": "cell-based", "method": "Sg metabolites modulate proinflammatory cytokines in human periodontal associated cells in vitro. Sg were cultured in a total of 40 ml DMEM for 24 hrs. After 200 μl of Sg suspension reached 0.2 at OD600 value in a 96-well plate, the Sg metabolites were collected by centrifugation at 3000 g for 10 min and then filtered through a 0.22 μm filter. No toxicity of Sg metabolites was detected using an MTT assay on primary human bone marrow mesenchymal stromal cells (BMSCs) and primary human gingival fibroblasts (HGF) (data no shown). The modulation of Sg metabolites on inflammatory cytokines was tested using human monocyte-derived macrophages (MDM) and HGF. The MDM were generated by inducing a human macrophage cell line (THP-1) using PMA at 10 ng/ml. The MDM at 2×10^6 cells/per well and HGF at 2×10^4 cells/per well were cultured in 24-well plates using DMEM with 10% FBS and 1% PS. The Sg metabolites at 1 and 5% v/v were added and incubated for 24 hrs before challenging with Pg-LPS at 100 ng/ml.\nL-Norleucine as well as other metabolites modulate proinflammatory cytokines in macrophages and HGF. L-Norleucine was obtained commercially (Sigma) and dissolved in DMEM. Mouse macrophages and human HGF were cultured with DMEM supplemented with different concentrations of L-Norleucine and subsequently challenged with Pg-LPS at 100 ng/ml.\nHuman monocyte-derived macrophages (MDM) using THP-1 cells and HGF were cultured in a 24-well plate with DMEM and challenged with Pg-LPS at 100 ng/ml.\nIn addition, freshly isolated epidydimal white adipose tissues (eWAT) from mice on a HFD for 16 weeks were minced and cultured in 24-well plates and treated with HCA at 0.5 and 1.0 μM in DMEM/F-12 containing 10% cosmic calf serum (CCS) and 1% penicillin-streptomycin (basal growth media, BGM). […] These preliminary data are strong evidence that Sg metabolites have the potential to modulate host inflammatory responses and attenuate inflammation.\nHCA promotes proliferation of health related bacteria and inhibits proliferation and attachment of periodontopathogenic bacteria. Promoting the growth of health-related commensal bacteria while inhibiting proliferation and attachment of pathogenic bacteria may be effective at preventing or treating periodontal inflammation. To determine if HCA has an effect on the growth properties of commensal bacteria and periodontopathogens, HCA at different concentrations was added to aerobic culture of S. mitis and S. oralis and anaerobic culture of T. denticola as described in our published manuscript (see detail in Shu et al, Journal of Periodontology, 2022). FIGS. 18A-C summarize the functions of HCA on the proliferation of specific commensal and pathogenic bacteria. […] Furthermore, the function of HCA on P. gingivalis attachment, a key parameter of adhesion and biofilm formation by periodontopathogenic bacteria, was investigated. […] Attachment measurements of P. gingivalis were performed based on our published studies (see detail in Shu et al, Journal of Periodontology, 2022). […] To test the biocompatibility and anti-inflammatory properties of HCA, human monocyte-derived macrophages (MDM) and gingival fibroblasts (HGF) were prepared as described in our previous studies. The cells were then treated with HCA from 0.1 to 50 μM. No toxicity was observed after treatment with different concentrations of HCA in either cell type using an MTT assay (FIGS. 19A and B, left column). The anti-inflammatory function of HCA on MDM and HGF after exposure to P. gingivalis lipopolysaccharide (PG-LPS) was investigated. […] HCA mitigates inflammation and affects the composition of microbiomes in vivo. Recent studies investigated whether HCA modulates periodontal inflammation using a mouse model. To induce periodontal inflammation, a total of 1 μl Pg-LPS at 10 μg/μl was directly injected twice a week into the interdental region between maxillary molars of C57BL/6J mice using a Hamilton1700 series syringe according to our previously published studies. […]"}, "Human MDM": {"tested_on": "Human MDM", "test": "Anti-inflammatory miR expression after Pg-LPS challenge", "type": "cell-based", "method": "FIGS. 11A-11B. Sg metabolites upregulate anti-inflammatory miRs in human macrophages and HGF. A-B: Relative transcript changes of miR-200c, 146a, and 21 in HGF (A) and human MDM (B) treated with AICAR, MA, HCA, and HPLA 24 hours after Pg-LPS challenge; performed in duplicate.\nHuman MDM was cultured in a 24-well plate and treated with HCA at different concentrations and Pg-LPS at 100 ng/mi for 24 hrs. […] (All data are presented as means±SEM. *: p<0.05 vs untreated, ANOVA)."}}}
{"smiles": "O=C(O)CCCCCO", "note": "[HCA, 6-hydroxycaproic acid]", "values": [{"measurement": "transcripts of IL-1β, IL-6, and IL-8", "setting": "[1]; HCA at 0.1 μM, 6 hours following PG-LPS challenge at 0.1 μg/mL", "value": "significantly downregulated"}, {"measurement": "protein levels of IL-6 and IL-8", "setting": "[1]; HCA at 0.1 μM, HGF lysate, after 24 hrs", "value": "significantly reduced"}, {"measurement": "transcripts of IL-1β, 6, and 8", "setting": "[1]; HCA at 0.1 and 1.0 μM, Pg-LPS at 100 ng/ml, after 6 hrs", "value": "significantly downregulated"}, {"measurement": "proinflammatory cytokines (transcripts of IL-1β, 6 and 8)", "setting": "[1]; at 0.1 μg after Pg-LPS challenge", "value": "modulate"}, {"measurement": "anti-inflammatory miRs (miR-200c, 146a, and 21)", "setting": "Human MDM; 24 hours after Pg-LPS challenge", "value": "upregulate"}, {"measurement": "miR-200c expression", "setting": "Human MDM; HCA at 10 μM, Pg-LPS at 100 ng/ml for 24 hrs", "value": "significantly upregulated"}]}
